Experimental data published in patent publication US9012200B2, “Composition of bacterial strains, bioremediation mixture and use of this composition for the removal of contaminants from the soil and the method for purifying the soil contaminants” (priority 2012, dated 2015).
Converted amounts (≈) assume the structure as drawn. Read-outs that look alike come from different tables or passages of the source.

Key:
Type in all cases: cell-based
[1] = tested on: Achromobacter sp. strain 4P; assay: Antibiotic MIC by E-test; conditions: Achromobacter, 24 h, read-out: MIC threshold values for a given antibiotic
Experimental: (§1) A disc diffusion method was performed to determine the susceptibility of bacteria to the selected antibiotics. We used discs soaked with the antibiotic of a well-defined concentration (BioMerioux) (Table 2) and the minimal inhibitory concentration test was carried out, using E-tests (Oxoid) (Table 3).
(§2) In the next stage of the research, MIC values of a given antibiotic for the investigated strains were determined, meaning the lowest concentration of the drug, expressed in mg/L, determined in vitro, which inhibits the growth of bacteria at a defined inoculum density, within a given time (Hryniewicz et at, 2001). These studies allow for the closer determination of the degree of susceptibility of bacteria to the applied antibiotics.
(§3) A bacterial suspension was evenly distributed on dishes with ready-to-use MHA medium (Oxoid), and then plastic testing strips (E-tests) soaked with an antibiotic with a concentration gradient were placed thereon. The dishes were incubated at 25-30° C. for 24 h, and the test results were read after this time.
(§4) The intersection of elliptical zone of inhibition, which appeared around the test strip, with the value indicator on the gradient scale of the strip, determined the lowest concentration of antibiotic, inhibiting growth of the microorganism (MIC). Similarly as in the disc diffusion method, the obtained results were compared with the guidelines contained in the relevant standards.

[2] = tested on: Pseudomonas sp. strain 3G; assay: Antibiotic MIC by E-test; conditions: Pseudomonas, 24 h, read-out: MIC threshold values for a given antibiotic
Experimental: as §1, §2, §3, §4

[3] = tested on: Brevundimonas sp. strain 6N; assay: Antibiotic MIC by E-test; conditions: Brevundimonas, 24 h, read-out: MIC threshold values for a given antibiotic
Experimental: as §1, §2, §3, §4

[4] = tested on: Pseudomonas sp. strain 4G; assay: Antibiotic MIC by E-test; conditions: Pseudomonas, 24 h, read-out: MIC threshold values for a given antibiotic
Experimental: as §1, §2, §3, §4

[5] = tested on: Brevundimonas sp. strain 5N; assay: Antibiotic MIC by E-test; conditions: Brevundimonas, 24 h, read-out: MIC threshold values for a given antibiotic
Experimental: as §1, §2, §3, §4

[6] = tested on: Stenotrophomonas sp. strain 2L; assay: Antibiotic MIC by E-test; conditions: Stenotrophomonas, 24 h, read-out: MIC threshold values for a given antibiotic
Experimental: as §1, §2, §3, §4

[7] = tested on: Stenotrophomonas sp. strain 5L; assay: Antibiotic MIC by E-test; conditions: Stenotrophomonas, 24 h, read-out: MIC threshold values for a given antibiotic
Experimental: as §1, §2, §3, §4

[8] = tested on: Stenotrophomonas sp. strain 3N; assay: Antibiotic MIC by E-test; conditions: Stenotrophomonas, 24 h, read-out: MIC threshold values for a given antibiotic
Experimental: as §1, §2, §3, §4

[9] = tested on: Arthrobacter sp. strain 1N; assay: Antibiotic MIC by E-test; conditions: Arthrobacter, 24 h, read-out: MIC threshold values for a given antibiotic
Experimental: as §1, §2, §3, §4

[10] = tested on: Stenotrophomonas sp. strain 6L; assay: Antibiotic MIC by E-test; conditions: Stenotrophomonas, 24 h, read-out: MIC threshold values for a given antibiotic
Experimental: as §1, §2, §3, §4

[11] = tested on: Brevundimonas sp. strain 2N; assay: Antibiotic MIC by E-test; conditions: Brevundimonas, 24 h, read-out: MIC threshold values for a given antibiotic
Experimental: as §1, §2, §3, §4

[12] = tested on: Achromobacter sp. strain 4P; assay: Disc diffusion antibiotic susceptibility; conditions: 24 h
Experimental: as §1
(§5) A McFarland's 0.5 inoculum was prepared from each strain's culture, using a densitometer (EMO). Then, using sterile cotton swabs, the suspension of bacterial cells was spread on dishes with ready-to-use MHA medium (Oxoid), and after 15 minutes, discs soaked with antibiotics at defined concentrations were placed on them.
(§6) The dishes were incubated at 25-30° C., and the results were read after 24 and 48 hours. The measure of susceptibility of a tested strain to a given antibiotic was the size of the inhibition zone which formed around the disc soaked with the antibiotic. The results read (sizes of zones measured in mm) were compared with the data contained in the European Committee on Antimicrobial Susceptibility Testing (EUCAST) standards from 2010 (Table 4).
(§7) The measure of susceptibility of the tested bacterial strain to a given antibiotic was the size of the inhibition zone which formed around the disc (Table 5).

[13] = tested on: Pseudomonas sp. strain 3G; assay: Disc diffusion antibiotic susceptibility; conditions: 24 h
Experimental: as §1, §5, §6, §7

[14] = tested on: Brevundimonas sp. strain 6N; assay: Disc diffusion antibiotic susceptibility; conditions: 24 h
Experimental: as §1, §5, §6, §7

[15] = tested on: Pseudomonas sp. strain 4G; assay: Disc diffusion antibiotic susceptibility; conditions: 24 h
Experimental: as §1, §5, §6, §7

[16] = tested on: Brevundimonas sp. strain 5N; assay: Disc diffusion antibiotic susceptibility; conditions: 24 h
Experimental: as §1, §5, §6, §7

[17] = tested on: Stenotrophomonas sp. strain 2L; assay: Disc diffusion antibiotic susceptibility
Experimental: as §1, §5, §6, §7

[18] = tested on: Stenotrophomonas sp. strain 5L; assay: Disc diffusion antibiotic susceptibility
Experimental: as §1, §5, §6, §7

[19] = tested on: Stenotrophomonas sp. strain 3N; assay: Disc diffusion antibiotic susceptibility; conditions: 24 h
Experimental: as §1, §5, §6, §7

[20] = tested on: Arthrobacter sp. strain 1N; assay: Disc diffusion antibiotic susceptibility
Experimental: as §1, §5, §6, §7

[21] = tested on: Stenotrophomonas sp. strain 6L; assay: Disc diffusion antibiotic susceptibility; conditions: 24 h
Experimental: as §1, §5, §6, §7

[22] = tested on: Brevundimonas sp. strain 2N; assay: Disc diffusion antibiotic susceptibility; conditions: 24 h
Experimental: as §1, §5, §6, §7

| SMILES | MIC ([1]; strain 4P, E-test) [µg/mL] | MIC [2] [µg/mL] | MIC [3] [µg/mL] | MIC [4] [µg/mL] | MIC [5] [µg/mL] | MIC [6] [µg/mL] | MIC [7] [µg/mL] | MIC [8] [µg/mL] | MIC ([9]; strain 1N, E-test) [µg/mL] | MIC [10] [µg/mL] | MIC [11] [µg/mL] | Size of the growth inhibition zone [12] [mm] | Size of the growth inhibition zone [13] [mm] | Size of the growth inhibition zone [14] [mm] | Size of the growth inhibition zone [15] [mm] | Size of the growth inhibition zone [16] [mm] | Size of the growth inhibition zone ([17]; 24 h) [mm] | Size of the growth inhibition zone ([18]; 24 h) [mm] | Size of the growth inhibition zone [19] [mm] | Size of the growth inhibition zone ([20]; 24 h) [mm] | other results |
| --- | --- | --- | --- | --- | --- | --- | --- | --- | --- | --- | --- | --- | --- | --- | --- | --- | --- | --- | --- | --- | --- |
| O=C(O)c1cn(C2CC2)c2cc(N3CCNCC3)c(F)cc2c1=O [CIP, ciprofloxacin] | ≥ 32 | ≥ 32 | ≥ 32 | ≥ 32 | ≥ 32 | ≥ 32 | 4 (≈ 12.1 µM) | ≥ 32 | ≥ 32 | ≥ 32 | ≥ 32 | 0 | 0 | 0 | 0 | 0 | 0 | 10 | 0 | 0 | Size of the growth inhibition zone ([18]; 48 h): 0 mm; Size of the growth inhibition zone [21]: 0 mm; Size of the growth inhibition zone [22]: 0 mm |
| CC[C@H]1OC(=O)[C@H](C)[C@@H](O[C@H]2C[C@@](C)(OC)[C@@H](O)[C@H](C)O2)[C@H](C)[C@@H](O[C@@H]2O[C@H](C)C[C@H](N(C)C)[C@H]2O)[C@](C)(O)C[C@@H](C)C(=O)[C@H](C)[C@@H](O)[C@]1(C)O [E, erythromycin] | 256 (≈ 349 µM) | ≥ 256 | 256 (≈ 349 µM) | ≥ 256 | 256 (≈ 349 µM) | ≥ 256 | ≥ 256 | ≥ 256 | 256 (≈ 349 µM) | ≥ 256 | 128 (≈ 174 µM) | 0 | 0 | 0 | 0 | 0 | 0 | 0 | 0 | 0 | Size of the growth inhibition zone [21]: 0 mm; Size of the growth inhibition zone [22]: 0 mm |
| CCn1cc(C(=O)O)c(=O)c2cc(F)c(N3CCNCC3)cc21 [NX, norfloxacin] | 256 (≈ 802 µM) | 192 (≈ 601 µM) | 96 (≈ 301 µM) | > 256 | 128 (≈ 401 µM) | 128 (≈ 401 µM) | 32 (≈ 100 µM) | 128 (≈ 401 µM) | 96 (≈ 301 µM) | 128 (≈ 401 µM) | 256 (≈ 802 µM) |  |  |  |  |  |  |  |  |  |  |
| CC1(C)S[C@@H]2[C@H](NC(=O)Cc3ccccc3)C(=O)N2[C@H]1C(=O)O [P, penicillin G] | ≥ 32 | ≥ 32 | ≥ 32 | ≥ 32 | ≥ 32 | ≥ 32 | ≥ 32 | ≥ 32 | ≥ 32 | ≥ 32 | ≥ 32 | 0 | 0 | 0 | 0 | 0 | 0 | 0 | 0 | 0 | Size of the growth inhibition zone [21]: 0 mm; Size of the growth inhibition zone [22]: 0 mm |
| Cc1cc(NS(=O)(=O)c2ccc(N)cc2)no1 [RL, sulfamethoxazole] | 12 (≈ 47.4 µM) | ≥ 1020 | ≥ 1020 | ≥ 1020 | ≥ 1020 | 6 (≈ 23.7 µM) | 8 (≈ 31.6 µM) | 12 (≈ 47.4 µM) | 12 (≈ 47.4 µM) | 12 (≈ 47.4 µM) | 12 (≈ 47.4 µM) | 0 | 0 | 0 | 0 | 0 | 0 | 0 | 0 | 0 | Size of the growth inhibition zone [21]: 0 mm; Size of the growth inhibition zone [22]: 0 mm |
| [H]/N=C(/N)N[C@H]1[C@H](O)[C@@H](O)[C@H](O[C@@H]2O[C@@H](C)[C@](O)(C=O)[C@H]2O[C@@H]2O[C@@H](CO)[C@H](O)[C@@H](O)[C@@H]2NC)[C@@H](N/C(N)=N\[H])[C@@H]1O [S, streptomycin] | 96 (≈ 165 µM) | ≥ 1020 | ≥ 1020 | ≥ 1020 | 64 (≈ 110 µM) | 64 (≈ 110 µM) | 64 (≈ 110 µM) | 384 (≈ 660 µM) | 48 (≈ 82.5 µM) | ≥ 1020 | 384 (≈ 660 µM) | 0 | 10 | 0 | 0 | 0 | 16 | 8 | 0 | 12 | Size of the growth inhibition zone ([17]; 48 h): 10 mm; Size of the growth inhibition zone ([20]; 48 h): 10 mm; Size of the growth inhibition zone [21]: 0 mm; Size of the growth inhibition zone [22]: 0 mm |
| CO/N=C(\C(=O)N[C@@H]1C(=O)N2C(C(=O)O)=C(CSc3nc(=O)c(=O)[nH]n3C)CS[C@H]12)c1csc(N)n1 [TX, ceftriaxone] |  | ≥ 256 | ≥ 256 | ≥ 256 | ≥ 256 | ≥ 256 | ≥ 256 | ≥ 256 | ≥ 256 | ≥ 256 | ≥ 256 |  |  |  |  |  |  |  |  |  | MIC [1]: 16 µg/mL (≈ 28.9 µM) |
| CN[C@H](CC(C)C)C(=O)N[C@H]1C(=O)N[C@@H](CC(N)=O)C(=O)N[C@H]2C(=O)N[C@H]3C(=O)N[C@H](C(=O)N[C@H](C(=O)O)c4cc(O)cc(O)c4-c4cc3ccc4O)[C@H](O)c3ccc(c(Cl)c3)Oc3cc2cc(c3O[C@@H]2O[C@H](CO)[C@@H](O)[C@H](O)[C@H]2O[C@H]2C[C@](C)(N)[C@H](O)[C@H](C)O2)Oc2ccc(cc2Cl)[C@H]1O [VA, vancomycin] |  |  |  |  |  |  |  |  |  |  |  | 0 | 0 | 0 | 0 | 0 | 0 | 0 | 0 | 0 | MIC [9]: ≥ 256 µg/mL; Size of the growth inhibition zone [21]: 0 mm; Size of the growth inhibition zone [22]: 0 mm |
